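Five concentrations, 48 hours, 96-well plates. GI50 = concentration required for 50% inhibition of growth.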 Active and inactive are the calls of the source. Cut-off read from the data, not from the text of the source: active = GI50 up to about 1.1 µM and inactive = higher. *1 amine or outer side, *2 acyl side, *3 side chain or, on linkers, in order; H or OH if unused. Where a SMILES comes first, the peptide text is derived from it. [ ]: non-standard residue; d: D form. The star is where a group is joined. ξ: configuration not given here. X26 = O=C([C@H]1CCC[C@H]1N[*:1])[*:2]; ξW = NC(Cc1c[nH]c2ccccc12)C(=O)O; ξF = NC(Cc1ccccc1)C(=O)O; Boc = CC(C)(C)OC(=O)*; ξK = NCCCCC(N)C(=O)O; ξT = CC(O)C(N)C(=O)O; tBu = CC(C)(C)*
What was measured:
Assay in all cases: NCI tumour cell line growth inhibition, 48 h
LOX IMVI = tested on: LOX IMVI
UACC-257 = tested on: UACC-257
NCI-H522 = tested on: NCI-H522
HCT-116 = tested on: HCT-116
ACHN = tested on: ACHN
Malme-3M = tested on: Malme-3M
SK-MEL-5 = tested on: SK-MEL-5
U-251 = tested on: U-251
HOP-62 = tested on: HOP-62
KM12 = tested on: KM12
SN12C = tested on: SN12C
SNB-78 = tested on: SNB-78
UACC-62 = tested on: UACC-62
NCI-H23 = tested on: NCI-H23
MOLT-4 = tested on: MOLT-4
RXF 393 = tested on: RXF 393
HOP-92 = tested on: HOP-92
NCI/ADR-RES = tested on: NCI/ADR-RES
MDA-N = tested on: MDA-N
PC-3 = tested on: PC-3

SMILES | GI50 (LOX IMVI) | GI50 (UACC-257) | GI50 (NCI-H522) | GI50 (HCT-116) | GI50 (ACHN) | GI50 (Malme-3M) | GI50 (SK-MEL-5) | GI50 (U-251) | GI50 (HOP-62) | GI50 (KM12) | GI50 (SN12C) | GI50 (SNB-78) | GI50 (UACC-62) | GI50 (NCI-H23) | GI50 (MOLT-4) | GI50 (RXF 393) | GI50 (HOP-92) | GI50 (NCI/ADR-RES) | GI50 (MDA-N) | GI50 (PC-3)
O=c1ccc2ccccc2c2ccccc12 | 1.91 µM (inactive) | 4.82 µM (inactive) | 4.37 µM (inactive) | 3.7 µM (inactive) | 3.97 µM (inactive) | 10.4 µM (inactive) | 2.9 µM (inactive) | 2.34 µM (inactive) | 3.24 µM (inactive) | 2.58 µM (inactive) | 2.46 µM (inactive) | 4.07 µM (inactive) | 2.27 µM (inactive) | 2.83 µM (inactive) | 3.78 µM (inactive) | – | – | – | – | –
Nc1nc(N)c(-c2ccccc2)c(C(=O)Nc2ccc(Cl)c(Cl)c2)n1 | > 100 µM (inactive) | > 100 µM (inactive) | – | > 100 µM (inactive) | > 100 µM (inactive) | > 100 µM (inactive) | > 100 µM (inactive) | > 100 µM (inactive) | > 100 µM (inactive) | > 100 µM (inactive) | > 100 µM (inactive) | > 100 µM (inactive) | > 100 µM (inactive) | > 100 µM (inactive) | > 100 µM (inactive) | > 100 µM (inactive) | > 100 µM (inactive) | – | – | –
Cc1cccc(/C=N/C23CC4CC(CC(C4)C2)C3)c1 | > 100 µM (inactive) | > 100 µM (inactive) | > 100 µM (inactive) | > 100 µM (inactive) | > 100 µM (inactive) | > 100 µM (inactive) | > 100 µM (inactive) | > 100 µM (inactive) | > 100 µM (inactive) | > 100 µM (inactive) | > 100 µM (inactive) | > 100 µM (inactive) | > 100 µM (inactive) | > 100 µM (inactive) | > 100 µM (inactive) | > 100 µM (inactive) | > 100 µM (inactive) | – | – | –
Cc1ccc2c(c1)CN1c3ccc(C)cc3CN2C1c1ccccc1O | 58.5 µM (inactive) | – | 65.6 µM (inactive) | 18.7 µM (inactive) | 40.3 µM (inactive) | > 100 µM (inactive) | 13.7 µM (inactive) | 38.5 µM (inactive) | 85.9 µM (inactive) | 43.3 µM (inactive) | 29.9 µM (inactive) | 67.1 µM (inactive) | 25.1 µM (inactive) | 27.3 µM (inactive) | 35.2 µM (inactive) | 7.18 µM (inactive) | 15.2 µM (inactive) | – | – | –
CCOC(=O)[C@@]12C(C)=CC(=O)O[C@]1(C)C[C@H]2C#N | > 100 µM (inactive) | > 100 µM (inactive) | – | > 100 µM (inactive) | > 100 µM (inactive) | > 100 µM (inactive) | > 100 µM (inactive) | > 100 µM (inactive) | > 100 µM (inactive) | > 100 µM (inactive) | > 100 µM (inactive) | > 100 µM (inactive) | > 100 µM (inactive) | > 100 µM (inactive) | > 100 µM (inactive) | > 100 µM (inactive) | > 100 µM (inactive) | – | – | –
COc1ccc(/C(CC2OC(=O)c3ccccc32)=N\NC(=O)C[N+](C)(C)C)cc1 (stereo not drawn) | 24.1 µM (inactive) | 31.3 µM (inactive) | 24.7 µM (inactive) | 22.5 µM (inactive) | 28.2 µM (inactive) | 31.1 µM (inactive) | 22.5 µM (inactive) | 17.2 µM (inactive) | 19.2 µM (inactive) | 21.2 µM (inactive) | 34.7 µM (inactive) | – | 15.4 µM (inactive) | 17.5 µM (inactive) | 23.7 µM (inactive) | 25.4 µM (inactive) | 23.1 µM (inactive) | 21.2 µM (inactive) | 38.2 µM (inactive) | 47.8 µM (inactive)
COc1cc(Br)c(CC2NCCc3cc(OC)c(OC)cc32)cc1OC (stereo not drawn) | – | 40.2 µM (inactive) | > 100 µM (inactive) | 24.4 µM (inactive) | 79.1 µM (inactive) | 58.5 µM (inactive) | – | 84.3 µM (inactive) | > 100 µM (inactive) | 73.6 µM (inactive) | 94.4 µM (inactive) | > 100 µM (inactive) | 77.4 µM (inactive) | 20.9 µM (inactive) | 46.6 µM (inactive) | – | 16.5 µM (inactive) | – | – | –
O=S(=O)(SC1=NCCN1)c1cccc2ccccc12 | 43.8 µM (inactive) | 28.5 µM (inactive) | 14.4 µM (inactive) | 30.3 µM (inactive) | 27 µM (inactive) | 32 µM (inactive) | 19.1 µM (inactive) | 35.1 µM (inactive) | 31.3 µM (inactive) | 17.9 µM (inactive) | 23 µM (inactive) | – | 34.4 µM (inactive) | 28.4 µM (inactive) | 27.7 µM (inactive) | 23.9 µM (inactive) | 36.8 µM (inactive) | 26.5 µM (inactive) | 18.7 µM (inactive) | 29.8 µM (inactive)
COC(=O)/C(C)=C/[N+](=O)[O-] | 18.7 µM (inactive) | 15.8 µM (inactive) | – | 8.04 µM (inactive) | 19.5 µM (inactive) | 17.3 µM (inactive) | 23 µM (inactive) | 18.5 µM (inactive) | 25.4 µM (inactive) | 18.5 µM (inactive) | 20.7 µM (inactive) | 21.1 µM (inactive) | 17.9 µM (inactive) | 19.8 µM (inactive) | 11 µM (inactive) | 21.2 µM (inactive) | 9.53 µM (inactive) | – | – | –
COc1ccc2c(c1)C=C([N+](=O)[O-])C(C1OC(C)(C)OC1C1COC(C)(C)O1)O2 (stereo not drawn) | 1.49 µM (inactive) | 2.77 µM (inactive) | 0.731 µM (active) | 1.79 µM (inactive) | 2.4 µM (inactive) | 2.31 µM (inactive) | 2.82 µM (inactive) | 3.01 µM (inactive) | 20 µM (inactive) | 2 µM (inactive) | 4.91 µM (inactive) | 2.79 µM (inactive) | 1.82 µM (inactive) | 11.6 µM (inactive) | 1.79 µM (inactive) | 1.98 µM (inactive) | 16.1 µM (inactive) | – | – | –
O=C1C=C(Nc2ccc(Cl)cc2C(=O)c2ccccc2)c2ccccc2C1=O | > 100 µM (inactive) | > 100 µM (inactive) | > 100 µM (inactive) | > 100 µM (inactive) | > 100 µM (inactive) | > 100 µM (inactive) | > 100 µM (inactive) | > 100 µM (inactive) | > 100 µM (inactive) | > 100 µM (inactive) | > 100 µM (inactive) | > 100 µM (inactive) | > 100 µM (inactive) | > 100 µM (inactive) | > 100 µM (inactive) | > 100 µM (inactive) | – | – | – | –
Cc1cccc(NC(=O)C(=O)Cc2nc3ccccc3nc2O)c1C | > 100 µM (inactive) | > 100 µM (inactive) | > 100 µM (inactive) | > 100 µM (inactive) | > 100 µM (inactive) | > 100 µM (inactive) | > 100 µM (inactive) | > 100 µM (inactive) | > 100 µM (inactive) | > 100 µM (inactive) | > 100 µM (inactive) | > 100 µM (inactive) | > 100 µM (inactive) | > 100 µM (inactive) | – | > 100 µM (inactive) | > 100 µM (inactive) | – | – | –
COC(=O)C1=C(O)C(C(=O)OC)[C@@]2(O)[C@@H](C(=O)OC)C(c3ccc(OC(=O)/C(=C/c4ccccc4)c4ccccc4)cc3)C[C@@H]1[C@@H]2C(=O)OC (stereo partly drawn) | 4.71 µM (inactive) | 18.9 µM (inactive) | 13.3 µM (inactive) | 5 µM (inactive) | 19.7 µM (inactive) | > 100 µM (inactive) | 26.8 µM (inactive) | 11.2 µM (inactive) | > 100 µM (inactive) | 27.9 µM (inactive) | 30.8 µM (inactive) | – | 3.47 µM (inactive) | > 100 µM (inactive) | 3.72 µM (inactive) | 9.71 µM (inactive) | 14.4 µM (inactive) | 44.2 µM (inactive) | 6.35 µM (inactive) | 32.5 µM (inactive)
O=C1c2ccccc2S(=O)(=O)c2ccccc21 | > 100 µM (inactive) | > 100 µM (inactive) | > 100 µM (inactive) | > 100 µM (inactive) | > 100 µM (inactive) | > 100 µM (inactive) | > 100 µM (inactive) | > 100 µM (inactive) | > 100 µM (inactive) | > 100 µM (inactive) | > 100 µM (inactive) | – | > 100 µM (inactive) | > 100 µM (inactive) | > 100 µM (inactive) | > 100 µM (inactive) | > 100 µM (inactive) | > 100 µM (inactive) | > 100 µM (inactive) | > 100 µM (inactive)
CC(OC(C)(C)C)C1NC(=O)C(CCCCNC(=O)OC(C)(C)C)NC(=O)C(Cc2c[nH]c3ccccc23)NC(=O)C(Cc2ccccc2)NC(=O)[C@H]2CCC[C@H]2NC(=O)C(Cc2ccccc2)NC1=O (stereo partly drawn) (cyclo([X26][ξF][ξW][ξK](Boc)[ξT](tBu)[ξF])) | 16.1 µM (inactive) | 5.41 µM (inactive) | 61.7 µM (inactive) | 7.26 µM (inactive) | > 100 µM (inactive) | > 100 µM (inactive) | 3.13 µM (inactive) | 25.5 µM (inactive) | > 100 µM (inactive) | > 100 µM (inactive) | 17.2 µM (inactive) | – | 28.5 µM (inactive) | 23.8 µM (inactive) | 14.2 µM (inactive) | > 100 µM (inactive) | > 100 µM (inactive) | > 100 µM (inactive) | 56.2 µM (inactive) | 6.37 µM (inactive)
O=C1c2scnc2-c2nccc3c2c1nc1ccccc13 [KUANONIAMINE A] | 0.172 µM (active) | 0.363 µM (active) | 0.0169 µM (active) | 0.272 µM (active) | 0.955 µM (active) | 0.684 µM (active) | 0.0412 µM (active) | 0.268 µM (active) | 1.04 µM (active) | 1.41 µM (inactive) | 1.4 µM (inactive) | – | 0.38 µM (active) | 0.223 µM (active) | 0.469 µM (active) | 1.77 µM (inactive) | 1.88 µM (inactive) | 0.231 µM (active) | 0.196 µM (active) | 0.664 µM (active)

Reference: ChEMBL document CHEMBL1201862, “PubChem BioAssay data set” (2004)
